Here are results for 6 compounds from PubChem BioAssay AID449735 (Southern Research Specialized Biocontainment Screening …, 2010).

A short description of test [1]: polymyxin sensitization of S. Typhimurium, late-stage follow-up, mechanism study for PhoP regulon inhibitor project, WT and phoP- strains, round 3 (AID 449735). The conditions noted are these: S. Typhimurium WT vs phoP-, polymyxin IC50 shift, OD600, at 150 µM, stronger effect = higher value.
Test [2] concerns S. Typhimurium WT vs phoP-, polymyxin IC50 shift, OD600. Described as above.
Setting [3] is: measured here: WT strain IC50 shift.
The mark [4] stands for this setting: measured here: phoP- strain IC50 shift.

A word on the IC50: it is the concentration that inhibits the measured activity by half.

Activity calls are given as the source filed them.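 The calls were made as follows: active = drop in polymyxin IC50 at top compound dose in wild type more than twice that in PhoP-lacking strain; inactive = the rest.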

Consider `O=C(Nc1ccc(Cl)cc1)N1CCCN(Cc2ccc(Br)cc2)C1`, for which, in test [1], the polymyxin IC50 shift difference WT - phoP- was -1.52 (inactive). In addition, the polymyxin IC50 shift was 1.77 in test [1] (setting [3]) and 3.29 in test [1] (setting [4]).
Taken in the same sequence, the figures for `CCn1cc(C(=O)O)c(=O)c2cc(F)c(N3CCN(C(=S)Nc4ccccc4OC)CC3)cc21` were -0.94 (inactive), -2.11 and -1.17.
In the same order, the values of `O=C(Nc1ccc(Cl)cc1)N1CCCN(Cc2ccccc2Br)C1` are -4.93 (inactive), -2.84 and 2.09.
Turning to `CCn1cc(C(=O)O)c(=O)c2cc(F)c(N3CCN(C(=S)Nc4ccccc4C)CC3)cc21`, the polymyxin IC50 shift in test [1] (setting [3]) worked out at 15.9; in test [1] (setting [4]), 3.07. Besides, in test [2], the IC50 is 30 µM.
`S=C(NCCc1ccc(Cl)cc1)Nc1ccncc1`: in test [1], the polymyxin IC50 shift difference WT - phoP- was -0.21 (inactive). Besides, the polymyxin IC50 shift in test [1] (setting [3]) worked out at 0.05; in test [1] (setting [4]), 0.26.
In the same order, the values of `O=C(Nc1ccc(I)cc1)N1CCCN(Cc2ccccc2F)C1` are -8.3 (inactive), 9.92 and 18.2.
